For 10 compounds, TGI results are on record in PubChem BioAssay (NCI).

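A five-concentration, 48-hour dose response in 96-well plates underlies each endpoint, interpolated linearly between surrounding concentrations. TGI: concentration producing complete growth inhibition.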 Bounds are passed on as bounds.

Holding throughout (assay): NCI anticancer screen, dose series, 48 h
For test [1], the system named is T-47D breast.
The test system of test [2] is MCF7 breast.
The subject of test [3] is ACHN renal.
Test [4] relates to SF-268 CNS.
The subject of test [5] is SW-620 colon.
Test [6] relates to SNB-19 CNS.
For test [7], the system named is OVCAR-4 ovarian.
For test [8], the system named is UACC-257 melanoma.
Test [9] concerns UO-31 renal.
For test [10], the system named is PC-3 prostate.
In test [11] the test system is MALME-3M melanoma.
In test [12] the test system is NCI-H226 lung.
Test [13] concerns COLO 205 colon.
For test [14], the system named is EKVX NSCLC.
Test [15] concerns MDA-N.
Test [16] concerns HOP-92 NSCLC.

Consider `CCOC(=O)C1(Cc2ccccc2)Cc2cc3c(cc2C1)CCC3`, for which the TGI is over 100 µM in [1]; 53 µM in [2]; over 100 µM in test [3]; over 100 µM in [4]; over 100 µM in test [5]; over 100 µM in test [6]. In addition, the TGI in test [7] is 98.4 µM; in test [8] it was over 100 µM; in [9], over 100 µM; in test [10], over 100 µM; in test [11] it was over 100 µM; in test [12] it was 76.8 µM. Further, the TGI was 45.2 µM in test [13], over 100 µM in [14] and over 100 µM in [15].

Consider `Cc1cc(C)c(S(=O)(=O)N[C@@H](/C=C(\Br)CO)C(C)C)c(C)c1`, for which the TGI is 68.4 µM in [1]; 59.4 µM in test [2]; over 100 µM in test [3]; over 100 µM in test [4]; over 100 µM in test [5]; over 100 µM in [6]. The TGI in [8] was 54.6 µM; in test [9] it was over 100 µM; in test [10], 48.9 µM; in test [11] it was 61.6 µM; in [16], 75.5 µM; in test [13] it was 31.8 µM. The TGI in [14] is over 100 µM; in [15], 69.8 µM.

As for `Cc1ccc(-c2sc(-c3ccc(C)cc3)c3c2C2CCC3C2)cc1`, the TGI in test [1], in test [3], in test [4], in test [5], in test [6] and in [7] was over 50 µM throughout. Besides, the TGI in [8], in test [9], in test [10], in test [11], in [12] and in test [16] was over 50 µM throughout. The TGI in [13], in test [14] and in test [15] was over 50 µM throughout.

Regarding `CCOc1cc(/C=N\N(C)C)cc(/C=N\N(C)C)c1O`, the TGI in test [1] was over 100 µM; in test [3], 56 µM; in test [4] it was 61.2 µM; in test [5], over 100 µM; in [6], over 100 µM; in test [7] it was over 100 µM. The TGI was over 100 µM in [8]; over 100 µM in test [9]; over 100 µM in test [10]; over 100 µM in test [11]; over 100 µM in [12]; 49.7 µM in test [16]. Further, the TGI in [13] is 34.3 µM; in [14] it was over 100 µM; in [15], over 100 µM.

For `ClC(Cl)(Cl)C1CCOC1n1nc2ccccc2n1` (stereo not given), the TGI in [1], in [2], in [4], in test [7], in test [8] and in test [10] was over 100 µM in each case. The TGI in test [11], in test [12], in [13], in test [14] and in test [15] was over 100 µM in each case.

Regarding `Cc1cc2nc(N3C(=O)/C(=C/c4cccc([N+](=O)[O-])c4)N=C3c3ccccc3)sc2cc1C`, the TGI in test [1] was over 100 µM; in test [2], 43.9 µM; in [3], over 100 µM; in [4], over 100 µM; in test [5], over 100 µM; in test [6], over 100 µM. Moreover, the TGI in test [7] was 96.2 µM; in [8] it was over 100 µM; in [9], over 100 µM; in [10], 56.5 µM; in [16], 58.2 µM; in test [13] it was over 100 µM. The TGI in test [14] stood at 94.3 µM; in test [15] it was 34.1 µM.

As to `CC1=C2C(=O)O[C@@H](c3ccoc3)[C@]2(C)CCC1=O`, the TGI in test [1], in test [2], in [3], in test [5], in [6] and in [8] was over 100 µM in each case. The TGI in [9], in test [10], in test [12], in test [16], in test [13] and in test [14] was over 100 µM in each case. In test [15], this compound returned a TGI of over 100 µM.

For `CN(C)CCOc1ccc(I)cc1Cc1ccccc1`, the TGI in [1] is 16.2 µM; in test [2], 27.5 µM; in test [3], 24.7 µM; in test [4], 27.4 µM; in test [5], 32.4 µM; in test [6] it was 28 µM. In addition, the TGI in test [7] stood at 24.6 µM; in test [8], 29.2 µM; in test [9] it was 20.4 µM; in test [10], 20.5 µM; in test [11], 29.9 µM; in test [12], 33.9 µM. Besides, the values for the TGI in test [13], in test [14] and in [15] were 26.7 µM, 28.8 µM and 17.4 µM, respectively.

In the case of `COCCOCN(C(=O)C1=CCC2(CC1)OCCO2)c1ccccc1I`, the TGI in test [1], in test [2], in test [3], in [5], in [6] and in test [7] was over 50 µM throughout. For the same compound, the TGI in test [8], in test [9], in test [10], in test [12], in [16] and in test [13] was over 50 µM throughout. Also, the TGI in [14] and in test [15] was over 50 µM in each case.

For `CC[C@@H]1CN2CCC1C[C@@H]2C(O)c1ccnc2ccc(OCCN3CCN(CCOc4ccc5nccc(C(O)[C@@H]6C[C@@H]7CCN6C[C@@H]7CC)c5c4)CC3)cc12` (stereo not given in full), the TGI in test [1] was found to be 42.1 µM; in [2], 31.8 µM; in [3] it was 28.8 µM; in test [4], 41.2 µM; in test [5] it was 55.6 µM; in test [6], 27.9 µM. Also, the TGI was 40.8 µM in test [7]; 32.1 µM in test [8]; 30.3 µM in test [10]; 54.1 µM in test [11]; 22.8 µM in [16]; 33.1 µM in test [13]. Moreover, the TGI in [14] amounted to 31.2 µM; in test [15], 27.1 µM.
